Measured values reported in paper PMC11509018, “Evaluation of the Role of Tanshinone I in an In Vitro System of Charcot-Marie-Tooth Disease Type 2N” (International Journal of Molecular Sciences, 2024).

Molecular target: T1, AlaRS R329H binding to Nrp1 (Homo sapiens, UniProt P49588, R329H)
T1 construct: expressed in transfected cells
T1 sequence (P49588 1-968 R329H): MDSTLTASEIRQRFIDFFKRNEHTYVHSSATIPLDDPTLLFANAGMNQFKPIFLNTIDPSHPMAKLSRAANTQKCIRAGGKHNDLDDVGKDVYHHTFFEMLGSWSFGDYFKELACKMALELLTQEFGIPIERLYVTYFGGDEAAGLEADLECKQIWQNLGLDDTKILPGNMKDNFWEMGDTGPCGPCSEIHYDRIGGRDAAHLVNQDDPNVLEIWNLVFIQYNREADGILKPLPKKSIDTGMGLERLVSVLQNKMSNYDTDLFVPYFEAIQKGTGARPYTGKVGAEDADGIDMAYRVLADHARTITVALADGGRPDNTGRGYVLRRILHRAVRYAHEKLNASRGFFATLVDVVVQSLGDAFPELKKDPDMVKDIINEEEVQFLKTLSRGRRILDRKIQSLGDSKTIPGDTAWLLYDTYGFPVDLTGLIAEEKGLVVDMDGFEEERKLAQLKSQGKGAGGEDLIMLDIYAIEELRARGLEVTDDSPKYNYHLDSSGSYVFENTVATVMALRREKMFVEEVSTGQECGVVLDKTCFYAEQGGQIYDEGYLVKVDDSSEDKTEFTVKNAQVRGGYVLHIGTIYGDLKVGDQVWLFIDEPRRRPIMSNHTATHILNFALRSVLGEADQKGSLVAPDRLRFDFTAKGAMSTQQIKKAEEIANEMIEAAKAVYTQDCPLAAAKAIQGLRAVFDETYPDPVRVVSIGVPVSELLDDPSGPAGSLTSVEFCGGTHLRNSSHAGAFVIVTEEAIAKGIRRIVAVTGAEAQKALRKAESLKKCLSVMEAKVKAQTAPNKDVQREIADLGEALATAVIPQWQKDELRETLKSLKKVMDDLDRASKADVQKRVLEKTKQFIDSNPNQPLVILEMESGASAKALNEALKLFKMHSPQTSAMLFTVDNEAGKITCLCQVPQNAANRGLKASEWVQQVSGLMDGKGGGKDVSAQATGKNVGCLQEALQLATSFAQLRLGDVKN
Assay: Co-IP of HA-AlaRS mutant with Nrp1 in transfected cells
Type: cell-based
Details: 20 µM Tanshinone I for 24 h, ImageJ, average of three repeats
Method: To further investigate whether Tanshinone I-induced conformational changes in AlaRS CMT mutants affect their interaction with Nrp1, Co-IP experiments were performed in cells treated with Tanshinone I. By comparing Co-IP results obtained before and after treatment, we assessed the influence of the drug on the binding strength and mode between the AlaRS CMT mutants and Nrp1. […] To confirm the direct effect of Tanshinone I on the interaction between AlaRS CMT mutants and Nrp1, pull-down experiments were performed. […] Given that the interaction between AlaRS mutants and Nrp1 is associated with disease progression in CMT, the ability of Tanshinone I to disrupt this binding highlights its potential to intervene in the pathogenic mechanisms of these diseases.
Figure 7 The impact of Tanshinone I on the interaction between AlaRS mutants and Nrp1. (A) Co-IP assays were conducted to assess the binding between HA-AlaRS mutants and Nrp1, both with and without treatment with 20 µM Tanshinone I for 24 h. […] (C) Pull down assay was performed to detect the binding between AlaRS mutants and GST-Nrp1 b1 with or without 20 µM Tanshinone I. (D) Relative quantification statistics of the AlaRS mutants pulled down from the GST pull down experiments after Tanshinone I treatment were performed using ImageJ. (E) The cell viability of 293T and NSC34 cells treated with different concentrations of Tanshinone I was assessed using the CCK-8 assay over a 24 h period. TEXT PRINTED IN THE PICTURE: (B) Tanshinone I: Mean density band (N71Y): 0.60; Mean density band (G102R): 0.53; Mean density band (R326W): 0.50; Mean density band (R329H): 0.50; Mean density band (E337K): 0.62 | (D) Tanshinone I: Mean density band (N71Y): 0.82; Mean density band (G102R): 0.76; Mean density band (R326W): 0.84; Mean density band (R329H): 0.84; Mean density band (E337K): 0.90
Total protein was extracted from cells using RIPA buffer (50 mM Tris-HCl pH 7.4, 150 mM NaCl, 1% NP40, 1 mM EDTA) supplemented with a protease and phosphatase inhibitor cocktail (Roche, Basel, Switzerland). After SDS-PAGE, the protein on the gel was transferred to a PVDF membrane (Bio-Rad, Hercules, CA, USA) and then blocked with 5% non-fat dry milk in TBST for 1 h. Then, the membranes were incubated with the indicated primary antibodies and corresponding HRP-conjugated secondary antibodies. Signals were detected using the Bio-Rad ChemiDoc system (Bio-Rad, Shanghai, China). The following antibodies were used: Flag (Ray antibody biotech, Beijing, China, 1:3000), HA (Ray antibody biotech, Beijing, China, 1:3000), and GAPDH (Ray antibody biotech, Beijing, China, 1:5000).
To detect the binding of Nrp1 and AlaRS mutants in cells, whole-cell lysates (500 μg) were treated overnight with 2 μg of anti-Flag antibody in RIPA buffer. Next, Protein A/G agarose beads (#sc-2003, Santa Cruz Biotechnology, Santa Cruz, CA, USA) were applied to the lysates and the samples were further treated for 8–12 h with rotation. Samples were washed three times with RIPA buffer. Subsequently, the immunoprecipitations were resuspended into 2 × SDS-loading buffer. The samples were then boiled for 10 min and detected using Western blot. The experiment was repeated three times.

- Mean density band (R329H), relative quantification of AlaRS mutant immunoprecipitated: 0.50
Structure (SMILES): Cc1coc2c1C(=O)C(=O)c1c-2ccc2c(C)cccc12 [Tanshinone I]
